Tests used:
[1] = test system: phosphorylated Ser226 on HSP90β; experiment: PhosphoScan LC-MS/MS proteomic analysis in PC3 cells; assay type: cell-based, human; settings: 10 μM 3 days, then TGFβ
Experimental: The 83 kDa protein was identified by pretreating PC3 cells with KBU2046 or vehicle control, treating with TGFβ and performing LC-MS/MS analysis on proteins pulled down by the KinomeView® antibody used in FIG. 4a. Resultant data were analyzed with the SEQUEST/Sorcerer data analysis suite, and proteins further selected based upon predetermined parameters (FIG. 19).
Phospho-proteomic Analysis. The Kinoview™ and PhosphoScan™ assays were performed by Cell Signaling Technology Inc.
Proteins bound in this manner were analyzed in replicates of N=2 using PhosphoScan™ technology. This identified 483 phosphopeptide assignments from 306 parent proteins, with a mean false discovery rate of 0.30% (estimated via Sorcerer search of composite human database of forward and reverse protein entries). Proteins were considered if the average values for treatment and control were each 3 times that of background. Further, it was required that each of the N=2 replicate values (used to calculate the average) to be >/=2.5 fold above background. Interest was focused on which protein decreased with KBU2046, and it was required that the decrease be >/=2.5 fold, compared to control. According to these parameters, there were 19 phospho-proteins whose expression decreased in cells treated with KBU2046, compared to control. These are depicted herein. […]

[2] = molecular target: T1, client protein binding to CDC37/HSP90β heterocomplexes (Homo sapiens, UniProt P08238+Q16543); experiment: Modified LUMIER assay; assay type: cell-based
T1 construct: expressed in transfected cells; host or cells: HEK293T
T1 sequence (P08238 2-724): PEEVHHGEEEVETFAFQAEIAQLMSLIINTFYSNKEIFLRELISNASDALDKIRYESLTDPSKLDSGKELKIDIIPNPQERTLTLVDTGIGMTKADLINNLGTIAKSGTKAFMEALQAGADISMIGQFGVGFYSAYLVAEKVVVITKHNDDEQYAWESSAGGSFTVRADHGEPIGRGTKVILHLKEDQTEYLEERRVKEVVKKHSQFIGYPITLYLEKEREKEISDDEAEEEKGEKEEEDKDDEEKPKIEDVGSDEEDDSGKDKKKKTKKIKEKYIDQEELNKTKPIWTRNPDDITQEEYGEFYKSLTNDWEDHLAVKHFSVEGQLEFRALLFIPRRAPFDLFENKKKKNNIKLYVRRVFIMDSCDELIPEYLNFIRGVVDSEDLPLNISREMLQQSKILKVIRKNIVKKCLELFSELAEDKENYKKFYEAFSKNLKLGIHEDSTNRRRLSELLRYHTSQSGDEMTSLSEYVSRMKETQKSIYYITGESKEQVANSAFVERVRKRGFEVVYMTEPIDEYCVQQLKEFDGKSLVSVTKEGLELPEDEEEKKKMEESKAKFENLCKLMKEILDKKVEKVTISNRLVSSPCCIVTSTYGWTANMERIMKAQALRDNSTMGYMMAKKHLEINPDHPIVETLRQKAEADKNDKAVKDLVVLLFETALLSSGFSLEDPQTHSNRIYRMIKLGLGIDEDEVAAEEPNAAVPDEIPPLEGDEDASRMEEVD
T1 sequence (Q16543 whole entry): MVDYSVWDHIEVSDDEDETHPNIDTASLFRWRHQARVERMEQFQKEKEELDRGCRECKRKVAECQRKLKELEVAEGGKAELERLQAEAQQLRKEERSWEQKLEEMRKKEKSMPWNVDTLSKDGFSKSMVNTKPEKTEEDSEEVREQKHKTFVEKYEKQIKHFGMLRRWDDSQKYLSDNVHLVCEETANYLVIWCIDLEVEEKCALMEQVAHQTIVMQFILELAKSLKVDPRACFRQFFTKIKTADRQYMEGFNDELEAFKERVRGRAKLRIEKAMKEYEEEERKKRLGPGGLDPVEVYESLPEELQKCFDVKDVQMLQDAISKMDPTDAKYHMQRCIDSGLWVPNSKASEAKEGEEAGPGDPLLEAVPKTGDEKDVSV
Experimental: (§1) HEK293T cells were transfected with 1 of 420 different protein kinases, treated with 10 μM KBU2046 (N=5 replicates) or vehicle control (N=5) for three days, and LUMIER assays performed. The N=17 kinases that gave significant findings (Student's t-test <0.05) in the same direction in each of two separate experiments are depicted. Each separate treatment and kinase condition in each of two separate experiments was conducted in replicates of N=5. […] FIGS. 6c and 6d show the results of the wound healing assay. PC3 cells were transfected with siRNA targeting RAF1 (si-Raf1) or non-targeting siRNA (si-control), treated with KBU2046 or vehicle as above, and RAF1 protein measured by Western blot (c) and effects upon wound healing measured (d). […] Purified recombinant HSP90β, CDC37, and RAF1 were combined with KBU2046, as indicated, incubated in an in vitro kinase assay for the indicated times, and Western blot for RAF1-Ser^338 phosphorylation performed. FIGS. 6f and 6g show the effect on HSP90β/CDC37 heterocomplex formation and function in vitro. Purified recombinant HSP90β, CDC37, RAF1, SGK3 or MAP3K6 were combined and treated with KBU2046 or vehicle control, as indicated, incubated in an in vitro kinase assay for the indicated times, and Western blot performed, as denoted. Experiments were repeated at separate times at least once, with similar results.
(§2) To examine whether this is associated with an altered signature of bound client kinase proteins, a modified LUMIER assay (Taipale, M. et al., Cell 150, 987-1001 (2012)) was performed to detect KBU2046-induced changes in client protein binding to CDC37/HSP90β heterocomplexes in intact cells. […] These findings are in contrast to classical inhibitors of HSP90 function which have been shown, through this same assay, to affect the binding of the majority client kinase proteins (Taipale, M. et al., Cell 150, 987-1001 (2012)).
(§3) LUMIER assay. The LUMIER assay was performed as described (Taipale, M. et al., Cell 150, 987-1001 (2012)).
(§4) Experiments had N=5 vehicle treated control plus N=5 KBU2046 treated separate wells of cells. Those yielding a t-test p value <0.05 in experiment #1, or those whose values were at or below baseline, were repeated in experiment #2. […] Of 420 kinase proteins tested, 17 (4%) met these criteria (FIG. 6a). For these 17 kinases, the experiment was repeated except that HEK293T cells were treated with TGFβ for the last 24 hrs of the 3 day incubation (FIG. 6b).

[3] = test system: client protein binding to CDC37/HSP90β heterocomplexes; experiment: Modified LUMIER assay; assay type: cell-based
Experimental: as §1, §2, §3, §4

[4] = test system: human prostate cells (PC3, PC3-M, 1532NPTX, 1542NPTX, 1532CPTX, 1542CPTX); experiment: Boyden chamber cell invasion assay, human prostate cells; assay type: cell-based; settings: 10 μM, 3 days; normal, primary and metastatic PCa cells
Excerpt: FIG. 1a is a schematic flow of probe synthesis and development strategy. […] Values are mean±SEM of a single experiment in replicates of N=4, with similar findings in multiple separate experiments (also N=4). […] Values are mean±SEM of a single experiment in replicates of N=24, with similar findings in a separate experiment (also N=24). *Denotes Student's t test P value <0.05, compared to controls. […] Values are mean±SEM from N>2 separate experiments, each in replicates of N=3. […] Values are the mean±SD number of total, CFU-GM, CFU-GEMM or BFU-E colonies at 14 days after treatment with KBU2046, from a single experiment in replicates of N=2. […] Values are the mean±SD of a single experiment, with similar results seen in a separate experiment, both in replicates of N=2.
Cell Invasion Assays. Boyden chamber cell invasion assays were performed as previously described^9, using either denatured collagen (BD Biosciences) or type IV human collagen (BD Biosciences), with the experiments repeated, each in N=4 replicates. In some experiments, as indicated, cells were transfected with an expression plasmid, using Lipofectamine 2000™ (Invitrogen), or with siRNA, using DharmaFect Duo (Thermo Scientific) and co-transfected with β-Galactosidase (Plasmid pCMV⋅SPORT-βgal; Life Technology).

O=C1c2ccccc2OCC1c1ccc(F)cc1 (racemic) [KBU2046, (±)-3(4-fluorophenyl)chroman-4-one]
decrease of abundance of phosphorylated Ser226 on HSP90β [1]: 6.6 fold
RAF1 binding to complexes ([2]; TGFβ treated cells): decreased binding
RIPKI binding to complexes ([2]; TGFβ treated cells): decreased
SGK3 binding to complexes ([2]; TGFβ treated cells): increased
MAP3K6 binding to complexes ([2]; intact cells): increases MAP3K6 binding to complexes
number of kinases with decreased binding ([3]; 10 μM, 3 days): 7
number of kinases with increased binding ([3]; 10 μM, 3 days): 10
share of kinases whose binding was significantly changed ([3]; of 420 kinase proteins): 4%
number of kinases whose binding was significantly changed ([3]; of 420 kinase proteins, 10 μM, 3 days): 17
inhibition of cell invasion [4]: inhibits cell invasion with efficacy equal-to-or-greater-than that of genistein
